The record followed here is patent publication US6288091A, “Antiherpes virus compounds and methods for their preparation and use” (Boehringer Ingelheim Ltd., priority 1999, dated 2001).

By EC50 is commonly meant the midpoint of the concentration-response curve. In general, IC50 refers to the concentration at which inhibition is half-maximal. Read a high IC50 as weaker potency.

In test [1] the test system is HCMV (strain AD169). As to the kind of experiment: Inhibition of HCMV replication, ELISA assay (Hs-68 cells). Type of test: cell-based, Human Cytomegalovirus (HCMV). The following applies: read-out: ELISA CMV EC50. The method, then: (§1) C) Inhibition of Human Cytomegalovirus (HCMV) Replication
(§2) The effect of compounds on the replication of HCMV has been measured by using an ELISA-based assay (ELISA) and a plaque reduction assay (PRA).
Hs-68 cells (ATCC # CRL 1635) were seeded in 96 well microtiter plates at 10,000 cells/well in 100 μL of DMEM medium (Gibco Canada Inc.) supplemented with 10% fetal bovine serum (FBS, Gibco Canada Inc.). The plates were incubated for 3 days at 37° to allow the cells to reach 80-90% confluency prior to the assay.
The medium was removed from wells by aspiration. The cells then were infected at a multiplicity of infection (MOI) of 0.01 PFU/cell with 50 μL of HCMV (strain AD169, ATCC VR-538) in DMEM medium supplemented with 5% heat inactivated FBS (assay medium). The virus was allowed to adsorb to cells for 2 h at 37°. Following viral adsorption, the medium was removed from the wells by aspiration. The cells were washed twice with 200 μL of assay medium to remove unabsorbed virus. The cells were then incubated with or without 100 μL of appropriate concentrations of test reagent in assay medium. After 8 days of incubation at 37°, the extent of viral replication was determined by an ELISA assay which detects the late structural protein p28 of HCMV.
Eight days after infection, the medium was aspirated from the wells. Non-specific binding sites were blocked by adding 200 μL of phosphate buffered saline containing 1% (w/v) bovine serum albumin (blocking buffer) to each well and incubating the plates for 30 min at room temperature. After removal of the blocking buffer by aspiration, the cells were fixed with 100 μL of cold ethanol-acetone solution (95:5) per well. The plates were placed at -20° for 30 min. The plates were washed 4 times with phosphate buffered saline containing 0.05% (v/v) polyoxyethylene sorbitan monolaurate (Tween®). Thereafter, 100 μL of mAb UL99 (Advanced Biotechnologies Inc., #13-130-100) recognizing HCMV protein p28 was added to each wells and plates were incubated for 2 h at room temperature. The plates were washed four times with 200 μL of the above-noted phosphate buffered saline/Tween-20® solution. The cells were then incubated with 100 μL of sheep anti-mouse IgGγ horseradish peroxidase conjugated for 2 h at room temperature. The plates were then washed four times with 200 μL of above-noted phosphate buffered saline/Tween-20® solution. Thereafter, 100 μL of ortho phenylenediamine dihydrochloride (OPD, Gibco Canada Inc.) solution was added to each well and the plates were agitated on a microplate shaker for 30 min in the dark. Color development was monitored at 450 nm using a microplate spectrophotometer.
The SAS program was used to calculate the % inhibition of viral replication and to generate EC50 values.
The EC50 values obtained according to this assay method for certain thiazolylphenyl derivatives of this invention are listed in the following tables under the heading ELISA CMV.

The next test deals with T1, HSV-1 helicase-primase (Human herpesvirus 1, UniProt P10189+P10236).
T1 construct: made in house; host or cells: Sf21 insect cells triply infected with recombinant baculoviruses (UL5, UL8, UL52)
T1 sequence (P10192 whole entry): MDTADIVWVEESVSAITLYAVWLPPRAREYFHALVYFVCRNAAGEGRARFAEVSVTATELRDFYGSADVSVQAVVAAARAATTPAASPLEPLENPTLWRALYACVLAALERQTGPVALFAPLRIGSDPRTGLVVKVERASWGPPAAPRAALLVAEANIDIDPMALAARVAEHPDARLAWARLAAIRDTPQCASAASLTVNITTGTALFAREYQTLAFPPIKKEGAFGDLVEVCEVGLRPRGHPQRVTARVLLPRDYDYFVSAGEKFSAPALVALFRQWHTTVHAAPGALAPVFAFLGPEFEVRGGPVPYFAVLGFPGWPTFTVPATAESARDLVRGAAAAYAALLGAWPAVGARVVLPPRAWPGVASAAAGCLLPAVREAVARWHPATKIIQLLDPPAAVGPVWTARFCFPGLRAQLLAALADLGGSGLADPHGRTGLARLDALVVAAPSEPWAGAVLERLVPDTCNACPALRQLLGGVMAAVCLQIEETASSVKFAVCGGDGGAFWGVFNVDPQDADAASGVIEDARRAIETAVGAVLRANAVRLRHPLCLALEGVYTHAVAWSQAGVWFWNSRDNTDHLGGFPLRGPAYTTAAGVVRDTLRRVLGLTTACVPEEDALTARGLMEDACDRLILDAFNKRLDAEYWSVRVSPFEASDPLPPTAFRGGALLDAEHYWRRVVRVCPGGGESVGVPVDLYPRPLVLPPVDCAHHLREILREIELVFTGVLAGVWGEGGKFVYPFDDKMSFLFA
T1 sequence (P10236 whole entry): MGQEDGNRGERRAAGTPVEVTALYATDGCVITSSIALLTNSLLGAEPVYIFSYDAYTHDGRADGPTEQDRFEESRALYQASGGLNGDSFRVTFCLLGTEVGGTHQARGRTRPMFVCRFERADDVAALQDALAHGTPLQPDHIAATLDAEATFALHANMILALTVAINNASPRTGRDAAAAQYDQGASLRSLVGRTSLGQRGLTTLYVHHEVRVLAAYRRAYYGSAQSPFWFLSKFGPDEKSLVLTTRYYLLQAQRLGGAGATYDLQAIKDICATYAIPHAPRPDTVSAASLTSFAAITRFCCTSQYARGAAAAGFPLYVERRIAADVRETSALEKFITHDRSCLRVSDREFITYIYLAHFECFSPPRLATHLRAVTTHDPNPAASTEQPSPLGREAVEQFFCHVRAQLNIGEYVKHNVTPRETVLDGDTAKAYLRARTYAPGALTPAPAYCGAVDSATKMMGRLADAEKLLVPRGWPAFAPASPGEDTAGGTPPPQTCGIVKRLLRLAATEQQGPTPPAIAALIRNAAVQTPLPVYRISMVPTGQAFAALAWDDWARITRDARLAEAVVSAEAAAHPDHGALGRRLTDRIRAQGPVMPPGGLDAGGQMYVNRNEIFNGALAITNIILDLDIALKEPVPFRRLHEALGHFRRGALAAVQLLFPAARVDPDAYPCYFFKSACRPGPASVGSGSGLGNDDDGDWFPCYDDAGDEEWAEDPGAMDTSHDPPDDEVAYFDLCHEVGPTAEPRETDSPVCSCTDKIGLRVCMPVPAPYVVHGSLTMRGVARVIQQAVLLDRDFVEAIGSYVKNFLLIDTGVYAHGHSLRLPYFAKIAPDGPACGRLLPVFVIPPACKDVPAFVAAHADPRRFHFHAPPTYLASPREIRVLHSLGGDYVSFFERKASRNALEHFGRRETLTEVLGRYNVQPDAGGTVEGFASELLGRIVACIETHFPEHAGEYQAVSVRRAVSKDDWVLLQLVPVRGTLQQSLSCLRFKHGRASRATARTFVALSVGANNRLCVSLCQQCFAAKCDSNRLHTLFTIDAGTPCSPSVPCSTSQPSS
T1 sequence (P10189 whole entry): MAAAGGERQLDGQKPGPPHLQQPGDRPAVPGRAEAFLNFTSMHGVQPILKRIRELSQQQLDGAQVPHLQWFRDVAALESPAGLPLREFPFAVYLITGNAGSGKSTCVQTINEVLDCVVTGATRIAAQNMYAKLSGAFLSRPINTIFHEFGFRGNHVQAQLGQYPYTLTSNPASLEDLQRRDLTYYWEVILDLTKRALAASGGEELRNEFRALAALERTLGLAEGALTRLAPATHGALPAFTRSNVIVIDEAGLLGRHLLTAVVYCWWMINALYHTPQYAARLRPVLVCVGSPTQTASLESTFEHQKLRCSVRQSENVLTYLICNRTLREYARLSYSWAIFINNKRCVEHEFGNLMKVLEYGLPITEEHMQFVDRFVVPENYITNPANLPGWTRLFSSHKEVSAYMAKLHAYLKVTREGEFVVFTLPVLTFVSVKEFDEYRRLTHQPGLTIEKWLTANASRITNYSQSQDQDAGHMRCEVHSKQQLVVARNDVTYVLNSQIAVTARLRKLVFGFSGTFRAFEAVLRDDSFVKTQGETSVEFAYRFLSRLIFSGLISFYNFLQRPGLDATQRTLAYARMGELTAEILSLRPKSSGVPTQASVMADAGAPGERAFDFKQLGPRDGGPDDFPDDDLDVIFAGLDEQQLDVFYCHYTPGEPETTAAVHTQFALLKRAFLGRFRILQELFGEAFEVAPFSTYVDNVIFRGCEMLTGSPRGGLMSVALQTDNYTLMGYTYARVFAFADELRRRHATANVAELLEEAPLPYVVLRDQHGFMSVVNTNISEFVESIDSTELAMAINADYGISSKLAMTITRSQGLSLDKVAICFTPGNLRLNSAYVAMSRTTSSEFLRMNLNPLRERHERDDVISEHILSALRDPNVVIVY
As to the kind of experiment: HSV-1 DNA-dependent ATPase assay (inhibition of HSV-1 helicase-primase). In kind it is biochemical. Put shortly: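 ATP hydrolysis was measured as inorganic phosphate (malachite green/molybdate, 650 nm) after 20 min at 34°. Reaction: 3 μg/mL purified Sf21-expressed UL5/UL8/UL52 helicase-primase, 25 μM single-stranded M13 DNA hybridized to 68-mer, 4 mM ATP, pH 7.5 HEPES buffer, 3.3% DMSO. Net absorbance change with and without inhibitor gave DNA-dependent ATPase activity.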

Another test relates to HSV-1 strain F or KOS. The test is described as follows: Inhibition of herpes simplex virus (HSV-1) replication in cell culture (BHK-21 cells, glycoprotein C ELISA). Type of test: cell-based. Put shortly:
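Replication readout: ELISA for HSV-1 late glycoprotein C (mAb C11, peroxidase-OPD, 450 nm) on glutaraldehyde-fixed cells. Monolayers (~50,000 cells/well) were infected with strain F or KOS (MOI 0.05 PFU/cell), then incubated 24 h at 37° with compound in 2% FBS α-MEM. EC50 derived from % inhibition.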

Test [2] relates to HCMV (strain AD169). As to the kind of experiment: Inhibition of HCMV replication, plaque reduction assay (PRA, Hs-68 cells). In kind it is cell-based, Human Cytomegalovirus (HCMV). The settings on record: read-out: PRA CMV EC50. The method, then:
as §1, §2
Hs-68 cells (ATCC # CRL 1635) were seeded in 12-well plates at 83,000 cells/well in 1 mL of DMEM medium (Gibco Canada Inc.) supplemented with 10% fetal bovine serum (FBS, Gibco Canada Inc.). The plates were incubated for 3 days at 37° to allow the cells to reach 80-90% confluency prior to the assay.
The medium was removed from the cells by aspiration. The cells were then infected with approximately 50 PFU of HCMV (strain AD169, ATCC VR-538) in DMEM medium supplemented with 5% inactivated FBS (assay medium). The virus was allowed to adsorb to cells for 2 h at 37°. Following viral adsorption, the medium was removed from the wells by aspiration. The cells were then incubated with or without 1 mL of appropriate concentrations of test reagent in assay medium. After 4 days of incubation at 37°, the medium was exchanged with fresh medium containing test compound and 4 days later the cells were fixed with 1% aqueous formaldehyde and stained with a 2% crystal violet solution in 20% ethanol in water. Microscopic plaques were counted using a stereomicroscope. Drug effects were calculated as a percent reduction in the number of plaques in the presence of each drug concentration compared to the number observed in the absence of drug. Ganciclovir was used as a positive control in all experiments.
The EC50 values obtained according to this assay for certain thiazolyl derivatives of this invention are listed in the following tables under the heading PRA CMV.
For orientation: In a plaque reduction assay, fewer plaques than in the control indicate reduced infectivity or spread.

The mark [3] stands for this setting: Human betaherpesvirus 5, AD169, Hs68, Group 1 Table 3 entries.
Where [4] appears, read: Human alphaherpesvirus 1, BHK-21, Group 1 Table 3 entries.
[5] abbreviates: Human betaherpesvirus 5, AD169, Hs68, Group 1 Table 1 entries.
[6] abbreviates: Human alphaherpesvirus 1, BHK-21, Group 1 Table 1 entries.
The mark [7] stands for this setting: Human betaherpesvirus 5, AD169, Hs68, Group 1 Table 5 entries.
Where [8] appears, read: Human alphaherpesvirus 1, BHK-21, Group 1 Table 5 entries.
[9] abbreviates: Human betaherpesvirus 5, AD169, Hs68, Group 1 Table 6 entries.
Setting [10] is: Human alphaherpesvirus 1, BHK-21, Group 1 Table 6 entries.

Each structure is given as a SMILES string. Where only a bound is given, the exact number is not on record here.

Turning to `CN(C(=O)CN(Cc1ccccc1)C(=O)c1ccncc1)c1ccc(-c2csc(N)n2)cc1` [Example 2], the EC50 in the test with HCMV (strain AD169) [1] (setting [3]) was determined as 78 µM; in the test on HSV-1 strain F or KOS (setting [4]), 0.34 µM. In addition, the IC50 on HSV-1 helicase-primase (Group 1 Table 3 entries) amounted to 1.5 µM.

Consider `Nc1nc(-c2ccc(NC(=O)CNCCc3ccccc3)cc2)cs1` [Example 2], for which the EC50 with HCMV (strain AD169) [1] (setting [5]) was determined as 3.1 µM; in the test on HSV-1 strain F or KOS (setting [6]), 6 µM. In addition, at HSV-1 helicase-primase (Group 1 Table 1 entries), the midpoint of inhibition, the IC50, lay at 4.7 µM.

With `Nc1nc(-c2ccc(NC(=O)[C@@H](Cc3ccccc3)NC(=O)C3CCCCC3)cc2)cs1` [Example 2], the EC50 in the test on HCMV (strain AD169) [1] (setting [7]) turned out to be 52 µM; in the test on HSV-1 strain F or KOS (setting [8]) it was 0.17 µM.

For `CN(C(=O)CNCc1ccccc1)c1ccc(-c2csc(N)n2)cc1` [Example 3], half-maximal inhibition against HSV-1 helicase-primase (Group 1 Table 3 entries) (IC50) was put at 13 µM. For the same compound, the figures for the EC50 with HSV-1 strain F or KOS (setting [4]) and in the test on HCMV (strain AD169) [2] (setting [3]) were 4 µM and 80 µM, respectively.

Consider `CC(C)(C)OC(=O)N1CCC[C@H]1C(=O)Nc1ccc(-c2csc(N)n2)cc1` [Example 4], for which the EC50 with HCMV (strain AD169) [1] (setting [9]) was greater than 64 µM; with HSV-1 strain F or KOS (setting [10]) it was 0.21 µM. The compound also yielded an IC50 against HSV-1 helicase-primase (Group 1 Table 6 entries) of 0.46 µM.

Consider `Cc1nc(-c2ccc(NC(=O)CN(Cc3ccccc3)C(=O)C3CCCCC3)cc2)cs1` [Example 4], for which the EC50 in the test with HCMV (strain AD169) [1] (setting [3]) was determined as 12 µM; with HSV-1 strain F or KOS (setting [4]), 0.12 µM. Further, the IC50 against HSV-1 helicase-primase (Group 1 Table 3 entries) was found to be 0.19 µM.

For `Nc1nc(-c2ccc(NC(=O)CNCc3ccc(F)cc3)cc2)cs1` [Example 4], the midpoint of inhibition at HSV-1 helicase-primase (Group 1 Table 1 entries), the IC50, lay at 3.5 µM. For the same compound, the EC50 in the test with HSV-1 strain F or KOS (setting [6]) turned out to be 1.8 µM; with HCMV (strain AD169) [2] (setting [5]), 16 µM.

As to `CN(C(=O)C1CCCCC1)[C@@H](Cc1ccccc1)C(=O)Nc1ccc(-c2csc(N)n2)cc1` [Example 5], the figures for the EC50 in the test on HCMV (strain AD169) [1] (setting [7]) and in the test on HSV-1 strain F or KOS (setting [8]) were 9.5 µM and 0.15 µM, respectively. The same compound gave an IC50 against HSV-1 helicase-primase (Group 1 Table 5 entries) of 0.22 µM.

Take `Nc1nc(-c2ccc(NC(=O)[C@@H](Cc3ccccc3)NCc3ccccc3)cc2)cs1` [Example 7]: the EC50 was less than 9 µM in the test with HCMV (strain AD169) [1] (setting [7]) and 2.1 µM with HSV-1 strain F or KOS (setting [8]). In addition, at HSV-1 helicase-primase (Group 1 Table 5 entries), the IC50 came out at 6.6 µM.

On to `Nc1nc(-c2ccc(NC(=O)[C@@H]3CCCN3Cc3ccccc3)cc2)cs1` [Example 7], for which the EC50 in the test with HCMV (strain AD169) [1] (setting [9]) is greater than 33 µM; with HSV-1 strain F or KOS (setting [10]), 1.1 µM.

Turning to `CNc1nc(-c2ccc(NC(=O)CN(Cc3ccccc3)C(=O)C3CCCCC3)cc2)cs1` [Example 8], the EC50 turned out to be 9 µM in the test on HCMV (strain AD169) [1] (setting [3]) and 0.002 µM in the test on HSV-1 strain F or KOS (setting [4]). On HSV-1 helicase-primase (Group 1 Table 3 entries), this compound came in with an IC50 of 0.05 µM.

In the case of `Nc1nc(-c2ccc(NC(=O)CNCC3CCCCC3)cc2)cs1` [Example 8], the results for the EC50 in the test with HCMV (strain AD169) [1] (setting [5]) and in the test on HSV-1 strain F or KOS (setting [6]) were 3.6 µM and 8 µM, respectively. The midpoint of inhibition against HSV-1 helicase-primase (Group 1 Table 1 entries), the IC50, lay at 2.9 µM.

Turning to `CNc1nc(-c2ccc(NC(=O)CN(CC3CCCCC3)C(=O)c3cccnc3)cc2)cs1` [Example 9], the EC50 in the test on HCMV (strain AD169) [1] (setting [3]) came to 5 µM; in the test on HSV-1 strain F or KOS (setting [4]), 1.3 µM. For the same compound, at HSV-1 helicase-primase (Group 1 Table 3 entries), half-maximal inhibition (IC50) required 10 µM.

Take `Nc1nc(-c2ccc(NC(=O)CNC(=O)c3ccccn3)cc2)cs1` [Example 19]: the IC50 on HSV-1 helicase-primase (Group 1 Table 1 entries) was 13 µM. Further, the EC50 stood at 4.5 µM in the test on HSV-1 strain F or KOS (setting [6]) and 20 µM in the test on HCMV (strain AD169) [2] (setting [5]).
